Results taken from patent US20230323336A1, “HIGH-THROUGHPUT, DROPLET-BASED SINGLE CELL RNA SEQUENCING” (priority 2021, published 2023).
≈ marks a conversion by molar mass, not a printed value.

Experiments:
[1] = system: MGH66; test: MIC by standard microdilution, strain MGH66; format: cell-based, K. pneumoniae; conditions: for MIC: Klebsiella pneumoniae
Procedure: (§1) The cells for flow cytometry were prepared using the same scheme as the meropenem-treated sample for BacDrop. After treating with meropenem at 2 µg/mL for 30 minutes, cells were diluted into PBS at the final concentration of 10^6 cells/mL and immediately run through flow cytometer. For the flow cytometry including dead-cell staining, 10 µL propidium iodide (1 mg/mL) (Invitrogen, cat# P1304MP) was mixed with 1 mL PBS. Cells after treatment were then diluted in the staining buffer at the final concentration of 10^6 cells/mL, and incubated in the dark at room temperature for 15 minutes followed by running through flow cytometer. To sort GFP-low and GFP-high populations, cells were run through fluorescence-activated cell sorting (FACS). Applicants sorted ~10^6 cells into 2 mL LB without or with meropenem (2 µg/mL) from each population. A 50 µL aliquot from cells sorted in LB medium without antibiotics was immediately diluted and plated on LB agar plates without antibiotics. The colony forming unites (CFU) on LB agar plates were enumerated to calculate the survival rates. The rest of the cells was used to measure MICs using the standard microdilution protocol^29 or proceeded with the persister assay. For the persister assay, cells were cultured at 37° C. with shaking. At each time points, a 50 µL aliquot was taken, diluted and plated on LB agar plates without antibiotics. Three replicates were performed in each experiment.

[2] = system: BIDMC35; test: MIC by standard microdilution, strain BIDMC35; format: cell-based, K. pneumoniae; conditions: for MIC: Klebsiella pneumoniae
Procedure: as §1

[3] = system: UCI38; test: MIC by standard microdilution, strain UCI38; format: cell-based, K. pneumoniae; conditions: for MIC: Klebsiella pneumoniae
Procedure: as §1

[4] = system: K. pneumoniae MGH66; test: Bulk RNA-seq of antibiotic-treated MGH66; format: cell-based; conditions: MGH66, OD600 ~0.2, 30 minutes treatment
Procedure: (§2) K.pneumoniae, E.coli, and P. aeruginosa were cultured in Luria-Bertani (LB) medium or Mueller-Hinton Broth (MHB) with shaking at 37° C.E.faecium was cultured in Todd-Hewitt broth (THB) with shaking at 37° C. For the GFP experiment, E.coli strains expressing gfp driven by different promoters were cultured separately in LB at 37° C. Early exponential growth phase cells (OD600 ~0.2) were collected and fixed immediately. For the antibiotic treatment experiment, K.pneumoniae clinical isolate MGH66 was cultured in MHB at 37° C. until early exponential phase. Then the culture was diluted to OD600 0.05 in MHB. After growing for two doublings (~40 min, OD600 ~0.2), the cultures were split into four equal volume cultures. One culture was left untreated, while the other three were treated with relevant antibiotic at breakpoint concentrations set by the Clinical and Laboratory Standards Institute (CLSI): 2 µg/mL for meropenem, 1 µg/mL for ciprofloxacin and 4 µg/mL for gentamicin. After 30 min, 7 mL of cells were collected from each of these cultures, and immediately proceeded with the cell fixation protocol. For the bulk RNA-seq experiments, samples were collected using the same treatment schemes, and three biological replicates were included in each condition. For the BIDMC35 experiment, BIDMC35 was cultured in LB medium at 37° C. until early exponential phase (OD600 ~0.2). 7 mL cells were then collected and immediately proceed with the cell fixation protocol.
To construct sequencing libraries from bacterial cultures, cell pellets collected from 1 mL early exponential phase cultures were re-suspended in 500 µL TRIzol Reagents (ThermoFisher, CN 15596026) and frozen at -80 C for at least 20 min. Cells were then thawed and mixed with 250 µL of 0.1 mm diameter Zirconia/Silica beads (BioSpec Products), and lysed mechanically via bead-beating for 90 second at 10 m/sec on a FastPrep (MP Bio). After addition of 0.1 mL chloroform, each sample tube was mixed thoroughly by inversion, incubated for 3 minutes at room temperature, and centrifuged at 12,000 xg for 15 minutes at 4° C. […]

[5] = system: K. pneumoniae MGH66; format: cell-based
Procedure: as §2
All reagents (Table 5) for cell fixation and permeabilization were kept ice-cold. […] (Digital Platform Rocker Shaker, VWR). […] Subsequent centrifugations were carried out at 7000 × g for 5 minutes at 4° C. […] Cells were centrifuged and resuspended in 700 µL50% Ethanol in PBS-RI. Cells were then washed twice with PBS-RI. After the second wash, cells were resuspended in 1 mL100 mM Tris-HCL (pH 7.5) supplemented with 0.1 U/uL NxGen RNase inhibitor.
Insufficient permeabilization may result in inefficient rRNA depletion and gDNA removal. For 1 permeabilization reaction, up to 40 million cells were centrifuged and resuspended in 250 µL0.04% Tween-20 in 1x PBS. If more cells are desired, multiple parallel reactions can be set up. Immediately following a 3-minute incubation on ice, 1 mL cold PBS-RI was added, and cells were spun down and resuspended in 200 µL lysozyme mix (100 mM Tris (pH 8.0), 50 mM EDTA pH 8.0, 0.25 U/µL NxGen RNase Inhibitor, 2.5 mg/mL lysozyme). Cells were then incubated at 37° C. for 15 minutes. After the incubation, 1 mL PBS-RI was added and cells were washed twice with 175 µL PBS-RI. After the second wash, cells were resuspended in 150 µL PBS (without RNase inhibitor added) and cell concentrations were measured.
Immediately after cell permeabilization, up to 40 million cells were centrifuged and resuspended in 11 µL nuclease-free H2O. 2 µL NEBNext Bacterial rRNA depletion solution and 2 µL Probe Hybridization Buffer (NEB, CN E7850) were mixed with cells on ice. The hybridization was conducted per the following (lid temperature set to 55° C.): 50° C. for 2 minutes, ramp down to 22° C. at 0.1° C. /second, and hold at 22° C. for 5 minutes. Probe hybridization was immediately followed by RNase H digestion by mixing the probe-hybridized cells with 2 µL RNase H reaction buffer, 2 µL Thermostable RNase H (NEB, CN E7850), and 1 µL nuclease-free H2O, followed by a 30-minute incubation at 50° C. (lid temperature set to 55° C.). […] The reaction was incubated at room temperature for 30 minutes, and the DNase treatment was stopped by adding 1 µL Stop Solution (50 mM EDTA) and incubating at 50° C. for 10 minutes. After the incubation, cells were centrifuged and washed twice with 100 µL PBS-RI. After the second wash, cells were resuspended in 20 µL0.5x PBS supplemented with 1 U/µL SUPERase-In RNase inhibitor and used immediately for in-cell reverse transcription.

[6] = system: E. coli 10ß; test: MIC by standard microdilution, strain E. coli 10ß; format: cell-based
Procedure: as §1, with “Three replicates were performed in each experiment.” left out

[7] = system: MGH66:pBA D: cspD; test: MIC by standard microdilution, strain MGH66:pBAD:cspD; format: cell-based, K. pneumoniae; conditions: cspD induced with 1% arabinose
Procedure: as §1, with “Three replicates were performed in each experiment.” left out

[8] = system: MGH66; test: RNA FISH of meropenem-treated MGH66; format: cell-based, K. pneumoniae; conditions: meropenem-treated MGH66, 20 fields of view
Procedure: RNA FISH probes were designed using Design Probes tool of DECIPHER^32. 3 - 5 probes were designed for each target gene (Table 11). Probes were synthesized at Integrated DNA technologies and labeled with either Cy3 or Alex488 dye at the 5′. Probes of the same gene were pooled together and diluted into 10 µM stocks. Meropenem-treated MGH66 cells were fixed and permeabilized using the same protocol as the cell fixation and permeabilization steps in BacDrop. The hybridization was carried out in 40% hybridization buffer at 50° C. overnight and the following washing steps of washing were performed as described previously^33. Cells were imaged using the DeltaVision widefield deconvolution imaging system with a 60x objective. ImageJ was used for image data analysis and cell quantification.

[9] = system: MGH66:PyhcN:gfp and MGH66:PcspD:gfp; test: Flow cytometry/FACS of GFP reporter strains with live/dead staining; format: cell-based, K. pneumoniae
Text: (§3) Applicants amplified the promoter region of cspD or yhcN from MGH66 and ligated it into pUA139^26 using the BamHI and XhoI sites, resulting in pUA139-PcspD and pUA139-PyhcN. The construct was then transformed into E.coli DH5a and the plasmids were extracted and verified using Sanger sequencing. Electrocompetent cells of MGH66 was made as previously reported^22. The extracted plasmids were then transformed into MGH66 via electroporation, generating MGH66: PcspD:gfp and MGH66: PyhcN:gfp.
as §1

[10] = system: MGH66; test: Killing kinetics of MGH66 treated with antibiotics (CFU); format: cell-based, K. pneumoniae; conditions: MGH66, at 30 minutes
Procedure: At each time points, cells from meropenem treatment (green), Ciprofloxacin treatment (blue), Gentamicin treatment (purple), and the untreated samples were diluted and plated on LB agar plates without antibiotics. CFUs from each condition were normalized to the CFUs of the untreated samples at the same time points to calculate the killing rates for each time points. The experiment was repeated three times and the error bars are plotted as standard deviation.

[11] = system: MGH66:PcspD:gfp sorted subpopulations; MGH66 over-expressing cspD; test: Persister assay (CFU over time under meropenem); format: cell-based, K. pneumoniae; conditions: meropenem 2 µg/mL
Procedure: as §1, with “Three replicates were performed in each experiment.” left out

[12] = system: MGH66: PyhcN:gfp; test: MIC by standard microdilution, reporter strain MGH66: PyhcN:gfp; format: cell-based, K. pneumoniae
Text: as §3
(§4) The cells for flow cytometry were prepared using the same scheme as the meropenem-treated sample for BacDrop. After treating with meropenem at 2 µg/mL for 30 minutes, cells were diluted into PBS at the final concentration of 10^6 cells/mL and immediately run through flow cytometer. For the flow cytometry including dead-cell staining, 10 µL propidium iodide (1 mg/mL) (Invitrogen, cat# P1304MP) was mixed with 1 mL PBS. Cells after treatment were then diluted in the staining buffer at the final concentration of 10^6 cells/mL, and incubated in the dark at room temperature for 15 minutes followed by running through flow cytometer. To sort GFP-low and GFP-high populations, cells were run through fluorescence-activated cell sorting (FACS). Applicants sorted ~10^6 cells into 2 mL LB without or with meropenem (2 µg/mL) from each population. […]

[13] = system: MGH66: PcpsD:gfp; test: MIC by standard microdilution, reporter strain MGH66: PcpsD:gfp; format: cell-based, K. pneumoniae
Text: as §3, §4

[14] = meropenem-treated MGH66, 2 µg/mL, 30 min
[15] = 30 minutes of meropenem treatment

O=C(O)c1cn(C2CC2)c2cc(N3CCNCC3)c(F)cc2c1=O [Ciprofloxacin, ciprofloxacin]
MIC [1]: 0.03 µg/mL (≈ 0.0905 µM)
MIC [2]: > 32 µg/mL
MIC [3]: 32 µg/mL (≈ 96.6 µM)
transcriptional response in bulk RNA-seq relative to untreated control [4]: induced genes involved in SOS response
heterogeneity of single-cell transcriptional response ([5]; MGH66, 30 min treatment): did not detect obvious heterogeneity of response

C[C@@H](O)[C@H]1C(=O)N2C(C(=O)O)=C(S[C@@H]3CN[C@H](C(=O)N(C)C)C3)[C@H](C)[C@H]12 [Meropenem, meropenem]
MIC [1]: 0.03 µg/mL (≈ 0.0782 µM)
MIC [2]: > 32 µg/mL
MIC [3]: 0.03 µg/mL (≈ 0.0782 µM)
MIC ([6]; Escherichia coli): < 0.03 µg/mL
effect of cspD induction on MIC [7]: did not affect
transcriptional response in bulk RNA-seq relative to untreated control [4]: minimal transcriptional responses
cells co-expressing cspD and rihC, BacDrop ([5]; meropenem-treated MGH66): ~ 0.7%
cells co-expressing rseB + yidC, BacDrop ([5]; meropenem-treated MGH66): ~ 8%
cells in DNA replication and cell division subpopulation (cluster 9) [5, 14]: 1%
cells in cell wall/membrane synthesis subpopulation (cluster 7 and 11) [5, 14]: 5.7%
cells in cspD-expressing subpopulation (cluster 10) [5, 14]: 0.7%
cells in strongest stress response subpopulation (clusters 5 and 12) [5, 14]: 8%
cells co-expressing cspD and rihC, RNA FISH [8]: ~ 0.85%
cells co-expressing rseB + yidC, RNA FISH [8]: ~ 12%
dead cells in the gated population (propidium iodide) [9, 15]: ~ 15.2%
live cells in the GFP-high population [9, 15]: about 94%
live cells in the GFP-low population [9, 15]: approximately 80%
heterogeneous expression of yhcN or cspD GFP reporters ([9]; MGH66:PyhcN:gfp, relative to untreated control): induced heterogeneous expression
impact on cell killing [10]: same impact on cell killing as ciprofloxacin and gentamicin
persister cells in MGH66 over-expressing cspD versus without induction ([11]; 1% arabinose induction): ~ 100 times
tolerant cells/persisters in GFP-high versus GFP-low sorted subpopulation ([11]; MGH66:PcspD:gfp sorted after 30-minute exposure): enriched for meropenem tolerant cells

gentamicin
MICs [1]: 1 µg/mL
MICs [2]: 0.5 µg/mL
MICs [3]: 2 µg/mL
MICs [6]: <0.03 µg/mL
MICs [12]: 1 µg/mL
MICs [13]: 1 µg/mL
transcriptional response in bulk RNA-seq relative to untreated control [4]: induced a group of heat shock chaperone proteins
heterogeneity of single-cell transcriptional response ([5]; MGH66, 30 min treatment): did not detect obvious heterogeneity of response
treated cells belonging to the heat-shock response cluster ([5]; MGH66, 30 min treatment, across both replicates): 66%-71%
